# Measured values: ChEMBL document CHEMBL1201862, “PubChem BioAssay data set” (2004)
#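 Test compounds were applied to cells in 96-well plates for 48 hours at 5 doses. GI50 is the concentration that inhibits growth by half.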 Calls of active or inactive are those of the source. No stated cut-off is given here; in the data, active = GI50 up to about 1.1 µM and inactive = higher.
# Legend:
# Assay in all cases: NCI-60 cell line screen, 48 h
# IGROV-1 = tested on: IGROV-1
# BT-549 = tested on: BT-549
# HCC 2998 = tested on: HCC 2998
# RPMI-8226 = tested on: RPMI-8226
# Hs-578T = tested on: Hs-578T
# HCT-116 = tested on: HCT-116
# TK-10 = tested on: TK-10
# SNB-75 = tested on: SNB-75
# 786-0 = tested on: 786-0
# OVCAR-4 = tested on: OVCAR-4
# RXF 393 = tested on: RXF 393
# MOLT-4 = tested on: MOLT-4
# NCI-H522 = tested on: NCI-H522
# UACC-257 = tested on: UACC-257
# OVCAR-5 = tested on: OVCAR-5
# NCI-H226 = tested on: NCI-H226
# SK-OV-3 = tested on: SK-OV-3
# EKVX = tested on: EKVX
# OVCAR-8 = tested on: OVCAR-8
# K562 = tested on: K562
SMILES,GI50 (IGROV-1),GI50 (BT-549),GI50 (HCC 2998),GI50 (RPMI-8226),GI50 (Hs-578T),GI50 (HCT-116),GI50 (TK-10),GI50 (SNB-75),GI50 (786-0),GI50 (OVCAR-4),GI50 (RXF 393),GI50 (MOLT-4),GI50 (NCI-H522),GI50 (UACC-257),GI50 (OVCAR-5),GI50 (NCI-H226),GI50 (SK-OV-3),GI50 (EKVX),GI50 (OVCAR-8),GI50 (K562)
CCCCSC1=N/C(=C\c2ccco2)C(=O)N1,36.6 µM (inactive),33.2 µM (inactive),30 µM (inactive),34.1 µM (inactive),29.9 µM (inactive),56.1 µM (inactive),59.6 µM (inactive),25.9 µM (inactive),87.3 µM (inactive),60.1 µM (inactive),12.1 µM (inactive),36.1 µM (inactive),28.9 µM (inactive),34.8 µM (inactive),> 100 µM (inactive),51.5 µM (inactive),> 100 µM (inactive),36.6 µM (inactive),44.1 µM (inactive),
CN(CCCNC(=O)c1nn(-c2ccccc2)c2c1Cc1ccccc1-2)CCCNC(=O)c1nn(-c2ccccc2)c2c1Cc1ccccc1-2,1.51 µM (inactive),1.56 µM (inactive),1.42 µM (inactive),1.72 µM (inactive),1.25 µM (inactive),1.65 µM (inactive),1.74 µM (inactive),1.36 µM (inactive),1.65 µM (inactive),0.929 µM (active),1.75 µM (inactive),1.12 µM (active),1.35 µM (inactive),1.72 µM (inactive),1.75 µM (inactive),,1.72 µM (inactive),1.83 µM (inactive),1.73 µM (inactive),0.55 µM (active)
N#CC(C#N)=C(N)/C(C#N)=C/c1ccc2ccccc2n1,16.9 µM (inactive),26.5 µM (inactive),77.3 µM (inactive),36.9 µM (inactive),21.7 µM (inactive),15.1 µM (inactive),> 100 µM (inactive),25.8 µM (inactive),17.9 µM (inactive),35.4 µM (inactive),20 µM (inactive),30.3 µM (inactive),,48.8 µM (inactive),> 100 µM (inactive),93.5 µM (inactive),35.3 µM (inactive),> 100 µM (inactive),30.5 µM (inactive),32.6 µM (inactive)
Cn1c2ccc([N+](=O)[O-])cc2c(=O)c2c(O)cc(O)cc21,15.5 µM (inactive),28.4 µM (inactive),> 100 µM (inactive),> 100 µM (inactive),27.5 µM (inactive),,66.2 µM (inactive),4.15 µM (inactive),19 µM (inactive),31.2 µM (inactive),25.7 µM (inactive),45.2 µM (inactive),7.74 µM (inactive),> 100 µM (inactive),> 100 µM (inactive),53.2 µM (inactive),,5.94 µM (inactive),13.2 µM (inactive),> 100 µM (inactive)
CCOC(=O)C(C)c1nc2cc(C(F)(F)F)ccc2[nH]c1=O (stereo unspecified),,> 100 µM (inactive),> 100 µM (inactive),51.9 µM (inactive),> 100 µM (inactive),88.9 µM (inactive),> 100 µM (inactive),> 100 µM (inactive),> 100 µM (inactive),81.5 µM (inactive),> 100 µM (inactive),85.5 µM (inactive),,69.8 µM (inactive),> 100 µM (inactive),> 100 µM (inactive),> 100 µM (inactive),46.5 µM (inactive),> 100 µM (inactive),59.8 µM (inactive)
CCOc1ccc(/N=N/C2C(=O)N(C(=O)CC(=O)Nc3ccc(Cl)cc3)N=C2C)cc1 (stereo unspecified),> 100 µM (inactive),> 100 µM (inactive),> 100 µM (inactive),> 100 µM (inactive),> 100 µM (inactive),> 100 µM (inactive),> 100 µM (inactive),18.4 µM (inactive),> 100 µM (inactive),> 100 µM (inactive),> 100 µM (inactive),,> 100 µM (inactive),,> 100 µM (inactive),> 100 µM (inactive),> 100 µM (inactive),> 100 µM (inactive),64.1 µM (inactive),
COC(=O)N1N=C(c2ccccc2)C1c1ccccc1 (stereo unspecified),,30.5 µM (inactive),32.1 µM (inactive),26.7 µM (inactive),71 µM (inactive),33.3 µM (inactive),70.1 µM (inactive),36 µM (inactive),35.2 µM (inactive),25.8 µM (inactive),31.7 µM (inactive),28.1 µM (inactive),,24.5 µM (inactive),78.5 µM (inactive),21.8 µM (inactive),69.3 µM (inactive),42.5 µM (inactive),27.5 µM (inactive),23.8 µM (inactive)
CC(=O)NC1C(OCc2ccccc2)OC(CO)C(O)C1OCC(=O)NC(C(=O)NC(CCC(=O)NCCCCCC(=O)Nc1ccc2c(c1)CN1C(=O)c3ccccc3C1=N2)C(N)=O)C(C)C (stereo unspecified),20.3 µM (inactive),21.6 µM (inactive),35.6 µM (inactive),97.7 µM (inactive),23.7 µM (inactive),36.2 µM (inactive),18.3 µM (inactive),22 µM (inactive),16.4 µM (inactive),21.9 µM (inactive),21.8 µM (inactive),> 100 µM (inactive),,25.9 µM (inactive),> 100 µM (inactive),,18.8 µM (inactive),31.6 µM (inactive),26.4 µM (inactive),36 µM (inactive)
